Source: PubChem BioAssay (NCI)
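Each compound was tested at five concentrations against cells in 96-well plates for 48 hours. Here, GI50 denotes the concentration required for 50% inhibition of growth. Definition used: TGI = concentration required for complete inhibition of growth.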

Experiments:
Assay in all cases: growth of human tumour cells (NCI), 48 h
[1] = test system: ACHN renal
[2] = test system: HCT-15 colon
[3] = test system: LOX IMVI melanoma
[4] = test system: MDA-MB-435
[5] = test system: OVCAR-4 ovarian
[6] = test system: SK-MEL-28 melanoma
[7] = test system: SNB-75 CNS
[8] = test system: SW-620 colon
[9] = test system: TK-10 renal
[10] = test system: U251 CNS

Cc1ccc(N=Nc2c(O)ccc3ccccc23)cc1
TGI [1]: > 100 µM
TGI [2]: > 100 µM
TGI [3]: > 100 µM
TGI [4]: > 100 µM
TGI [5]: > 100 µM
TGI [6]: > 100 µM
TGI [7]: > 100 µM
TGI [8]: > 100 µM
TGI [9]: > 100 µM
TGI [10]: > 100 µM

COc1cc2c(cc1OCCCCCCN1CCN(CC(=O)Nc3ccc(Cl)cc3C(=O)c3ccccc3Cl)CC1)N=CC1CCCN1C2=O (stereo not drawn)
GI50 [1]: 0.3 µM
TGI [1]: 0.765 µM
GI50 [2]: 0.518 µM
TGI [2]: 1.18 µM
GI50 [3]: 0.157 µM
TGI [3]: 0.305 µM
GI50 [4]: 0.157 µM
TGI [4]: 0.304 µM
GI50 [5]: 0.419 µM
TGI [5]: 1.25 µM
GI50 [6]: 0.185 µM
TGI [6]: 0.332 µM
GI50 [7]: 0.169 µM
TGI [7]: 0.472 µM
GI50 [8]: 0.211 µM
TGI [8]: 0.591 µM
GI50 [9]: 0.497 µM
TGI [9]: 1.17 µM
GI50 [10]: 0.258 µM
TGI [10]: 0.725 µM

O=C1CCC(N2C(=O)c3ccccc3C2=O)C(=O)N1 (stereo not drawn)
TGI [1]: > 100 µM
TGI [2]: > 100 µM
GI50 [3]: > 100 µM
TGI [3]: > 100 µM
TGI [4]: > 100 µM
TGI [5]: > 100 µM
GI50 [6]: > 100 µM
TGI [6]: > 100 µM
TGI [7]: > 100 µM
TGI [8]: > 100 µM
GI50 [9]: > 100 µM
TGI [9]: > 100 µM
TGI [10]: > 100 µM

COC(=O)C1C(O)C(C)C(O)C(C)C=C(C)C2=C3C(=C(C)C(=O)c4c(O)c(c(C)c(OC(C)=O)c43)NC(=O)C(C)=C/C=C\C(C)C(O)C(C)C1O)OCO2 (stereo not drawn)
TGI [1]: > 100 µM
TGI [2]: 65.9 µM
TGI [3]: 43 µM
TGI [4]: 30.4 µM
TGI [5]: > 100 µM
TGI [6]: 47.3 µM
TGI [7]: 92.9 µM
TGI [8]: 56.4 µM
TGI [9]: > 100 µM
TGI [10]: > 100 µM

S=c1nc(N/N=C/c2ccco2)c2cn[nH]c2[nH]1
GI50 [1]: > 100 µM
TGI [1]: > 100 µM
GI50 [2]: 50 µM
TGI [2]: > 100 µM
GI50 [3]: 58.7 µM
TGI [3]: > 100 µM
GI50 [4]: 45.7 µM
TGI [4]: > 100 µM
GI50 [5]: > 100 µM
TGI [5]: > 100 µM
GI50 [6]: > 100 µM
TGI [6]: > 100 µM
GI50 [7]: > 100 µM
TGI [7]: > 100 µM
GI50 [8]: 51 µM
TGI [8]: > 100 µM
GI50 [9]: > 100 µM
TGI [9]: > 100 µM
GI50 [10]: > 100 µM
TGI [10]: > 100 µM

CCN(c1cc(-c2ccc(CN3CCOCC3)cc2)cc(C(=O)NCc2c(C)cc(C)[nH]c2=O)c1C)C1CCOCC1
GI50 [1]: 26 µM
TGI [1]: 74.9 µM
GI50 [2]: 19.2 µM
TGI [2]: 48.4 µM
GI50 [3]: 15.9 µM
TGI [3]: 30.3 µM
GI50 [4]: 17.4 µM
TGI [4]: 34.6 µM
GI50 [5]: 25.9 µM
TGI [5]: 97.2 µM
GI50 [6]: 20.5 µM
TGI [6]: 47.7 µM
GI50 [7]: 16.7 µM
TGI [7]: > 91.9 µM
GI50 [8]: 20.7 µM
TGI [8]: 52.4 µM
GI50 [9]: 25.2 µM
TGI [9]: > 73.6 µM
GI50 [10]: 26 µM
TGI [10]: > 81 µM

C#Cc1nc2ccccc2c(=O)[nH]1
GI50 [1]: 0.336 µM
TGI [1]: 1.32 µM
GI50 [2]: 0.224 µM
TGI [2]: 0.644 µM
GI50 [3]: 0.168 µM
TGI [3]: 0.315 µM
GI50 [4]: 0.51 µM
TGI [4]: 2.13 µM
GI50 [5]: 1.38 µM
TGI [5]: 2.79 µM
GI50 [6]: 0.861 µM
TGI [6]: 3.42 µM
GI50 [7]: 1.8 µM
TGI [7]: 5.16 µM
GI50 [8]: 0.291 µM
TGI [8]: 1.12 µM
GI50 [9]: 0.546 µM
TGI [9]: 11.2 µM
GI50 [10]: 1.66 µM
TGI [10]: 4.28 µM

C1CC[N-]CC1.CC(=N\O)/C(C)=N/O.CC(=N\O)/C(C)=N/O.OC1[CH-]CCCC1.[Co+2]
GI50 [1]: 76.3 µM
TGI [1]: > 100 µM
GI50 [2]: 65.5 µM
TGI [2]: > 100 µM
GI50 [3]: 36.4 µM
TGI [3]: > 100 µM
GI50 [4]: 33.9 µM
TGI [4]: > 100 µM
GI50 [5]: 72.7 µM
TGI [5]: > 100 µM
GI50 [6]: 32.5 µM
TGI [6]: > 100 µM
GI50 [7]: 26.9 µM
TGI [7]: > 100 µM
GI50 [8]: 31.6 µM
TGI [8]: > 100 µM
GI50 [9]: 39.8 µM
TGI [9]: > 100 µM
GI50 [10]: 31 µM
TGI [10]: > 100 µM

COc1ccc(-c2nc(-c3nc4ccc(F)cc4[nH]3)c3ccccn23)cc1
GI50 [1]: 4.28 µM
TGI [1]: 25.9 µM
GI50 [2]: 33.6 µM
TGI [2]: > 100 µM
GI50 [3]: 10.8 µM
TGI [3]: > 100 µM
GI50 [4]: 8.05 µM
TGI [4]: > 100 µM
GI50 [5]: 6.92 µM
TGI [5]: > 100 µM
GI50 [6]: 22.8 µM
TGI [6]: > 100 µM
GI50 [7]: 3.4 µM
TGI [7]: 12.4 µM
GI50 [8]: 22.4 µM
TGI [8]: > 100 µM
GI50 [9]: 16.1 µM
TGI [9]: 57.9 µM
GI50 [10]: 13.6 µM
TGI [10]: 51.3 µM
